Values after ≈ are worked out from the molar mass of the structure shown. Active and inactive are the calls of the source. No cut-off for these calls is given here.
test system: Escherichia coli; assay: Antibacterial activity against Escherichia coli SG458 incubated overnight at 37 degC measured after 24 hrs by agar diffusion method; assay type: functional, organism-based; conditions: not given

SMILES | Activity
C[C@H]1OC(=O)CCCNC(=O)[C@@H](NC(=O)c2ncccc2O)[C@@H](C)OC1=O | inactive
CC[C@H](C)[C@@H]1NC(=O)C[C@H](CC(C)C)CNC(=O)[C@@H](NC(=O)c2ccccn2)[C@@H](C)OC1=O | inactive
C[C@H]1OC(=O)COC(=O)CCC(Cc2ccccc2)NC(=O)[C@H]1NC(=O)OC(C)(C)C (stereo in doubt; form 1) [listing 1 of 2 here] | inactive
C[C@H]1OC(=O)COC(=O)CCC(Cc2ccccc2)NC(=O)[C@H]1NC(=O)OC(C)(C)C (stereo in doubt; form 2) [listing 1 of 2 here] | inactive
C[C@H]1OC(=O)CCC(Cc2ccccc2)NC(=O)[C@@H](NC(=O)c2ncccc2O)[C@@H](C)OC1=O (stereo partly drawn) | inactive
C[C@@H](OC(=O)COCc1ccccc1)[C@H](NC(=O)c1ncccc1O)C(=O)NCCCC(=O)OCc1ccccc1 | inactive
C[C@@H](OCc1ccccc1)C(=O)O[C@H](C)[C@H](NC(=O)c1ncccc1O)C(=O)NCCCC(=O)OCc1ccccc1 | inactive

test system: Bacillus spizizenii; assay: Antibacterial activity against Bacillus subtilis ATCC 6633 incubated overnight at 37 degC measured after 24 hrs by agar diffusion method; assay type: functional, organism-based; conditions: not given

SMILES | Activity
C[C@H]1OC(=O)CCCNC(=O)[C@@H](NC(=O)c2ncccc2O)[C@@H](C)OC1=O | inactive
CC[C@H](C)[C@@H]1NC(=O)C[C@H](CC(C)C)CNC(=O)[C@@H](NC(=O)c2ccccn2)[C@@H](C)OC1=O | inactive
C[C@H]1OC(=O)COC(=O)CCC(Cc2ccccc2)NC(=O)[C@H]1NC(=O)OC(C)(C)C (stereo in doubt; form 1) [listing 1 of 2 here] | inactive
C[C@H]1OC(=O)COC(=O)CCC(Cc2ccccc2)NC(=O)[C@H]1NC(=O)OC(C)(C)C (stereo in doubt; form 2) [listing 1 of 2 here] | inactive
C[C@H]1OC(=O)CCC(Cc2ccccc2)NC(=O)[C@@H](NC(=O)c2ncccc2O)[C@@H](C)OC1=O (stereo partly drawn) | inactive
C[C@@H](OC(=O)COCc1ccccc1)[C@H](NC(=O)c1ncccc1O)C(=O)NCCCC(=O)OCc1ccccc1 | inactive
C[C@@H](OCc1ccccc1)C(=O)O[C@H](C)[C@H](NC(=O)c1ncccc1O)C(=O)NCCCC(=O)OCc1ccccc1 | inactive

test system: Sporobolomyces salmonicolor; assay: Antifungal activity against Sporobolomyces salmonicolor 549 incubated overnight at 30 degC measured after 24 hrs by agar diffusion method; assay type: functional, organism-based; conditions: not given

SMILES | Activity
C[C@H]1OC(=O)CCCNC(=O)[C@@H](NC(=O)c2ncccc2O)[C@@H](C)OC1=O | inactive
CC[C@H](C)[C@@H]1NC(=O)C[C@H](CC(C)C)CNC(=O)[C@@H](NC(=O)c2ccccn2)[C@@H](C)OC1=O | inactive
C[C@H]1OC(=O)COC(=O)CCC(Cc2ccccc2)NC(=O)[C@H]1NC(=O)OC(C)(C)C (stereo in doubt; form 1) [listing 1 of 2 here] | inactive
C[C@H]1OC(=O)COC(=O)CCC(Cc2ccccc2)NC(=O)[C@H]1NC(=O)OC(C)(C)C (stereo in doubt; form 2) [listing 1 of 2 here] | inactive
C[C@H]1OC(=O)CCC(Cc2ccccc2)NC(=O)[C@@H](NC(=O)c2ncccc2O)[C@@H](C)OC1=O (stereo partly drawn) | inactive
C[C@@H](OC(=O)COCc1ccccc1)[C@H](NC(=O)c1ncccc1O)C(=O)NCCCC(=O)OCc1ccccc1 | inactive
C[C@@H](OCc1ccccc1)C(=O)O[C@H](C)[C@H](NC(=O)c1ncccc1O)C(=O)NCCCC(=O)OCc1ccccc1 | inactive

test system: Mycolicibacterium smegmatis; assay: Antimycobacterial activity against Mycobacterium smegmatis SG987 incubated overnight at 37 degC measured after 24 hrs by agar diffusion method; assay type: functional; conditions: not given

SMILES | diameter of the inhibition zone (DIZ) [mm]
C[C@H]1OC(=O)COC(=O)CCC(Cc2ccccc2)NC(=O)[C@H]1NC(=O)OC(C)(C)C (stereo in doubt; form 2) [listing 2 of 2 here] | 21
C[C@H]1OC(=O)COC(=O)CCC(Cc2ccccc2)NC(=O)[C@H]1NC(=O)OC(C)(C)C (stereo in doubt; form 1) [listing 2 of 2 here] | 17
C[C@H]1OC(=O)CCC(Cc2ccccc2)NC(=O)[C@@H](NC(=O)c2ncccc2O)[C@@H](C)OC1=O (stereo partly drawn) | 17
C[C@H]1OC(=O)CCC(Cc2ccccc2)NC(=O)[C@@H](NC(=O)OC(C)(C)C)[C@@H](C)OC1=O (stereo in doubt; form 2) | 0

test system: Mycolicibacterium vaccae; assay: Antimycobacterial activity against Mycobacterium vaccae IMET 10670 incubated overnight at 37 degC measured after 24 hrs by agar diffusion method; assay type: functional; conditions: not given

SMILES | diameter of the inhibition zone (DIZ)
C[C@H]1OC(=O)COC(=O)CCC(Cc2ccccc2)NC(=O)[C@H]1NC(=O)OC(C)(C)C (stereo in doubt; form 2) [listing 2 of 2 here] | 24 - 31 mm
C[C@H]1OC(=O)COC(=O)CCC(Cc2ccccc2)NC(=O)[C@H]1NC(=O)OC(C)(C)C (stereo in doubt; form 1) [listing 2 of 2 here] | 20 - 26 mm
C[C@H]1OC(=O)CCC(Cc2ccccc2)NC(=O)[C@@H](NC(=O)c2ncccc2O)[C@@H](C)OC1=O (stereo partly drawn) | 21 - 29 mm
C[C@H]1OC(=O)CCC(Cc2ccccc2)NC(=O)[C@@H](NC(=O)OC(C)(C)C)[C@@H](C)OC1=O (stereo in doubt; form 2) | 0 mm

test system: Mycolicibacterium smegmatis; assay: Antimycobacterial activity against Mycobacterium smegmatis SG987 after 48 hrs by resazurin microtiter assay; assay type: functional; conditions: not given

SMILES | MIC [µM] | Activity
C[C@H]1OC(=O)COC(=O)CCC(Cc2ccccc2)NC(=O)[C@H]1NC(=O)OC(C)(C)C (stereo in doubt; form 2) [listing 2 of 2 here] | 7.2 (≈ 3.13 µg/mL) | 
C[C@H]1OC(=O)COC(=O)CCC(Cc2ccccc2)NC(=O)[C@H]1NC(=O)OC(C)(C)C (stereo in doubt; form 1) [listing 2 of 2 here] | 28.8 (≈ 12.5 µg/mL) | 
C[C@@H](OC(=O)CO)[C@H](NC(=O)OC(C)(C)C)C(=O)NC(CCC(=O)O)Cc1ccccc1 (stereo partly drawn) |  | inactive
CC[C@H](C)[C@@H]1NC(=O)C[C@H](CC(C)C)CNC(=O)[C@@H](NC(=O)c2ccccn2)[C@@H](C)OC1=O |  | inactive
C[C@@H](O)C(=O)O[C@H](C)[C@H](NC(=O)OC(C)(C)C)C(=O)NC(CCC(=O)O)Cc1ccccc1 (stereo partly drawn) |  | inactive

same assay, conditions: Mycolicibacterium smegmatis, SG987, 48 h; read-out: MIC

SMILES | MIC [µM]
NNC(=O)c1ccncc1 [ISONIAZID] | 29.2 (≈ 4 µg/mL)
C[C@H]1OC(=O)CCC(Cc2ccccc2)NC(=O)[C@@H](NC(=O)c2ncccc2O)[C@@H](C)OC1=O (stereo partly drawn) | 13.7 (≈ 6.43 µg/mL)

test system: Mycobacterium tuberculosis; assay: Antimycobacterial activity against Mycobacterium tuberculosis H37Rv after 7 days by BacTiter-Glo microbial cell viability assay; assay type: functional; conditions: not given

SMILES | MIC [µM] | Activity
C[C@H]1OC(=O)COC(=O)CCC(Cc2ccccc2)NC(=O)[C@H]1NC(=O)OC(C)(C)C (stereo in doubt; form 1) [listing 2 of 2 here] | 8 (≈ 3.48 µg/mL) | 
C[C@@H](OC(=O)CO)[C@H](NC(=O)OC(C)(C)C)C(=O)NC(CCC(=O)O)Cc1ccccc1 (stereo partly drawn) |  | inactive
CC[C@H](C)[C@@H]1NC(=O)C[C@H](CC(C)C)CNC(=O)[C@@H](NC(=O)c2ccccn2)[C@@H](C)OC1=O |  | inactive
C[C@@H](O)C(=O)O[C@H](C)[C@H](NC(=O)OC(C)(C)C)C(=O)NC(CCC(=O)O)Cc1ccccc1 (stereo partly drawn) |  | inactive

same assay, conditions: Mycobacterium tuberculosis, H37Rv, 168 h; read-out: MIC

SMILES | MIC [µM]
C[C@H]1OC(=O)COC(=O)CCC(Cc2ccccc2)NC(=O)[C@H]1NC(=O)OC(C)(C)C (stereo in doubt; form 2) [listing 2 of 2 here] | 4 (≈ 1.74 µg/mL)
NNC(=O)c1ccncc1 [ISONIAZID] | 0.31 (≈ 0.0425 µg/mL)
C[C@H]1OC(=O)CCC(Cc2ccccc2)NC(=O)[C@@H](NC(=O)c2ncccc2O)[C@@H](C)OC1=O (stereo partly drawn) | 8 (≈ 3.76 µg/mL)
C[C@H]1OC(=O)CCC(Cc2ccccc2)NC(=O)[C@@H](NC(=O)OC(C)(C)C)[C@@H](C)OC1=O (stereo in doubt; form 2) | 125 (≈ 56.1 µg/mL)

test system: Mycolicibacterium aurum; assay: Antimycobacterial activity against Mycobacterium aurum SB66 incubated overnight at 37 degC measured after 24 hrs by agar diffusion method; assay type: functional; conditions: not given

SMILES | diameter of the inhibition zone (DIZ) [mm]
C[C@H]1OC(=O)COC(=O)CCC(Cc2ccccc2)NC(=O)[C@H]1NC(=O)OC(C)(C)C (stereo in doubt; form 2) [listing 2 of 2 here] | 0
C[C@H]1OC(=O)CCC(Cc2ccccc2)NC(=O)[C@@H](NC(=O)c2ncccc2O)[C@@H](C)OC1=O (stereo partly drawn) | 0
C[C@H]1OC(=O)CCC(Cc2ccccc2)NC(=O)[C@@H](NC(=O)OC(C)(C)C)[C@@H](C)OC1=O (stereo in doubt; form 2) | 0

molecular target: T1, Serine/threonine-protein kinase PknB (Mycobacterium tuberculosis) (UniProt P9WI81); assay: Inhibition of Mycobacterium tuberculosis GST-tagged PknB expressed in Escherichia coli assessed as reduction in PknB autophosphorylation at 4.8 uM preincubated for 30 mins followed by [gamma32P]ATP addition measured after 30 mins by scintillation counting method relative to control; conditions: not given
T1 sequence (whole entry): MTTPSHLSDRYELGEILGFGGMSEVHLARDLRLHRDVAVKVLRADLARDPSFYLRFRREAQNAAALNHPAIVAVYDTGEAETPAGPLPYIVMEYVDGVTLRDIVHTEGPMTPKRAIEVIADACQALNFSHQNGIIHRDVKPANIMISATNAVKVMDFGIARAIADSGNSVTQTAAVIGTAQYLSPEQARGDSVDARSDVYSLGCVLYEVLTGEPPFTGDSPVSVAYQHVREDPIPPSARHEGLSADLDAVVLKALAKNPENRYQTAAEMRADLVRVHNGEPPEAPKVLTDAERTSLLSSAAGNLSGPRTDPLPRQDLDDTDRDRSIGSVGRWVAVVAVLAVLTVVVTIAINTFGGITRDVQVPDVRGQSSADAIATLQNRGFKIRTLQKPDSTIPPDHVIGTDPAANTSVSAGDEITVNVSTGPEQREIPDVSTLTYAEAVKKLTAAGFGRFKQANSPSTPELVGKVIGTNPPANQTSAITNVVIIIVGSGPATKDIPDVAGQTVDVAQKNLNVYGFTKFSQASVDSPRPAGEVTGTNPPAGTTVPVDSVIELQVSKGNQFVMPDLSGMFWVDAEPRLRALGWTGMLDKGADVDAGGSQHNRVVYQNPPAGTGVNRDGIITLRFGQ

SMILES | inhibition [%]
C[C@H]1OC(=O)COC(=O)CCC(Cc2ccccc2)NC(=O)[C@H]1NC(=O)OC(C)(C)C (stereo in doubt; form 1) [listing 1 of 2 here] | 60
C[C@H]1OC(=O)COC(=O)CCC(Cc2ccccc2)NC(=O)[C@H]1NC(=O)OC(C)(C)C (stereo in doubt; form 2) [listing 1 of 2 here] | 60
C[C@H]1OC(=O)CCC(Cc2ccccc2)NC(=O)[C@@H](NC(=O)c2ncccc2O)[C@@H](C)OC1=O (stereo partly drawn) | 35

molecular target: T1, Serine/threonine-protein kinase PknB (Mycobacterium tuberculosis); assay: Inhibition of Mycobacterium tuberculosis GST-tagged PknB expressed in Escherichia coli assessed as reduction in PknB autophosphorylation at 0.24 to 4.8 uM preincubated for 30 mins followed by [gamma32P]ATP addition measured after 30 mins by scintillation counting method; conditions: not given

SMILES | inhibition
CC/C(C)=C1\OC(=O)[C@H](C)[C@@H](O)[C@H](Cc2cccnc2)NC(=O)[C@@H](NC(=O)c2ncccc2O)[C@@H](C)OC1=O | inactive

test system: Mycobacterium tuberculosis; assay: Antimycobacterial activity against Mycobacterium tuberculosis H37Rv ATCC 27294 by microplate alamar blue assay; assay type: functional; conditions: not given

SMILES | MIC [µM]
COC(=O)/C=C/C(=O)c1ccc(OC)cc1 | 1.14 (≈ 0.251 µg/mL)

test system: not listed separately; assay: Cytotoxicity against human HeLa cells assessed as reduction in cell viability after 72 hrs by CellTiter-Blue1 assay; assay type: cell-based; conditions: not given

SMILES | CC50 at 72 h [µg/mL]
C[C@H]1OC(=O)COC(=O)CCC(Cc2ccccc2)NC(=O)[C@H]1NC(=O)OC(C)(C)C (stereo in doubt; form 2) [listing 2 of 2 here] | 5 to 50 (≈ 11.5 to 115 µM)
C[C@H]1OC(=O)CCC(Cc2ccccc2)NC(=O)[C@@H](NC(=O)c2ncccc2O)[C@@H](C)OC1=O (stereo partly drawn) | > 5

test system: not listed separately; assay: Antiproliferative activity against human K562 cells after 72 hrs by CellTiter-Blue1 assay; assay type: cell-based; conditions: not given

SMILES | GI50 at 72 h [µg/mL]
C[C@H]1OC(=O)COC(=O)CCC(Cc2ccccc2)NC(=O)[C@H]1NC(=O)OC(C)(C)C (stereo in doubt; form 2) [listing 2 of 2 here] | 5 to 50 (≈ 11.5 to 115 µM)
C[C@H]1OC(=O)CCC(Cc2ccccc2)NC(=O)[C@@H](NC(=O)c2ncccc2O)[C@@H](C)OC1=O (stereo partly drawn) | > 5

test system: not listed separately; assay: Antiproliferative activity against HUVEC after 72 hrs by CellTiter-Blue1 assay; assay type: cell-based; conditions: human

SMILES | GI50 at 72 h [µg/mL]
C[C@H]1OC(=O)COC(=O)CCC(Cc2ccccc2)NC(=O)[C@H]1NC(=O)OC(C)(C)C (stereo in doubt; form 2) [listing 2 of 2 here] | 5 to 50 (≈ 11.5 to 115 µM)
C[C@H]1OC(=O)CCC(Cc2ccccc2)NC(=O)[C@@H](NC(=O)c2ncccc2O)[C@@H](C)OC1=O (stereo partly drawn) | > 5

— ChEMBL document CHEMBL4219252, “Synthesis, antimycobacterial activity and influence on mycobacterial InhA and PknB of 12-membered cyclodepsipeptides” (Bioorg Med Chem, 2018)
